# Results: patent US20250340510A1, “Substituted Phenylbenzenesulfonamide Derivatives and Uses Thereof” (Nine Square Therapeutics Corporation, priority 2022, published 2025)
# Experiments:
# TRPML1 = TRPML1 (Homo sapiens, UniProt Q9GZU1); assay: Calcium flux in HEK293 overexpressing TRPML1 plasma membrane variant (FLIPR, Calcium 6 dye); format: cell-based; details: HEK293/TRPML1-PM clone A5 cells; 4-parameter logistic fit; read-out: TRPML1 calcium flux (FLIPR) dose response: EC50
# Summary of the method: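 HEK293 clone expressing plasma-membrane-targeted TRPML1 (N- and C-terminal dileucine motifs deleted), loaded with Calcium 6 dye for 2 h at 37 °C in HBSS/20 mM HEPES pH 7.4. Fluorescence recorded 10 s baseline then 170 s after compound addition. Max-minus-min response over baseline fitted by 4-parameter logistic for EC50.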
# TFEB = TFEB translocation assay in HeLa cells (nuclear to cytoplasmic TFEB ratio, high-content imaging); format: cell-based; details: Homo sapiens, HeLa, 1.5 h, 90 mins incubation at 37° C., ratio of nuclear to cytoplasmic TFEB
# Procedure: Example B2. TFEB Translocation Assay
# Rabbit TFEB antibody, Cell Signaling Technology #4240S
# PFA 16% MeOH-free, Election Microscopy Sciences #50-980-487
# HCS CellMask Deep Red, ThermoFisher Scientific #H32721
# Plates: Perkin Elmer Phenoplate #605730 black optically clear, tissue culture treated 384-well plate
# Example B2.2 Method, Day 1: Cells Seeded in 384WP
# Cells were seeded in the afternoon. The outer one row of the plate was not used to avoid outer well edge effects.
# HeLa cells were detached using trypsin, and the cells were counted using a cell counter.
# 4000 HeLa cells were seeded per well in […] growth media (DMEM with 10% FBS, 1 mM sodium pyruvate and Pen-Strep).
# Example B2.3 Method, Day 2: Assay with TRPML1 Compounds+Staining
# Compounds were added to cells using a Tecan D300e dispenser.
# Cells were incubated for 90 mins at 37° C. with the compounds (compound range: 80 nM-[…] (2× step dilution—8 dilution steps, 3 replicates per condition)
# The cells were fixed by adding 16.5 μL of 16% PFA (4% final) and incubating for 15 min at room temperature.
# The cells were washed with 3× in PBS-TX (PBS+0.1% Triton X-100)−1×100 μL followed by 2×50 μL.
# The cells were blocked and permeabilized in 30 μL of blocking buffer (PBS-TX+5% goat serum) for 1 h.
# The cells were incubated with TFEB antibody (1:200, CST 4240S) in 30 μL blocking buffer overnight at 4° C. The plates were kept damp to avoid evaporation.
# Example B2.4 Method, Day 3: Staining+Imaging
# The cells were washed 3× in PBS-TX—3×100 μL with a Biotek EL406 washer.
# The cells were incubated with Goat anti-Rb Alexa-Fluor 488 (1:2000), cell mask (1:10,000) and Hoechst (1:10,000) in 30 μL blocking buffer for 1 h at room temperature. The solution was dispensed using a 5 μL peristaltic cassette (EL406).
# The cells were washed 3× in PBS-TX—3×100 μL with a EL406 washer, then […] PBS was dispensed using a 5 μL peristaltic cassette (EL406).
# The cells were imaged on an Operetta CLS High-content imaging system using a 20× water immersion objective (NA 1.0) the same day.
# Image analysis was performed using Harmony V4.9 (Perkin Elmer). Briefly, nuclei were segmented from background-corrected images using Hoechst intensity, and cell body segmented using HCS CellMask DeepRed. A sliding parabola filter was applied to the AlexaFluor 488 channel (TFEB), before sum pixel intensity in the nuclear and cytoplasmic regions was calculated. A ratio of nuclear to cytoplasmic TFEB was used to define TFEB translocation from the cytosolic to nuclear compartment. The EC50 values derived by fitting the data to a sigmoidal dose response curve using Prism 9 (Graphpad).
# TRPML1, sequence (Q9GZU1 17-572 limits assumed): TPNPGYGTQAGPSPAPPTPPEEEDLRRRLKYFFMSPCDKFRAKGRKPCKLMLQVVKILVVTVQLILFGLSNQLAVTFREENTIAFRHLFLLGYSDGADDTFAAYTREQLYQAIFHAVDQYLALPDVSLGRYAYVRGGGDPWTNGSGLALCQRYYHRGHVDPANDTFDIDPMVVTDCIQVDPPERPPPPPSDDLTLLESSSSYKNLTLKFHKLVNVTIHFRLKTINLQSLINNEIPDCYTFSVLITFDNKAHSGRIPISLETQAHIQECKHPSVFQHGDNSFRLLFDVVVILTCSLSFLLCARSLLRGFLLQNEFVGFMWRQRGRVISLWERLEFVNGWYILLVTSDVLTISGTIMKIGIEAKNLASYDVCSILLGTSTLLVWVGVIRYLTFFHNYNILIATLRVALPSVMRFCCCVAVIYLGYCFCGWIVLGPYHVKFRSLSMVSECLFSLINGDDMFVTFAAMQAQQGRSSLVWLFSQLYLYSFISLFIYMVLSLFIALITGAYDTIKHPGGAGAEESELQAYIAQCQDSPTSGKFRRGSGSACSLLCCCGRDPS
EC50 (TRPML1),EC50 (TFEB),SMILES
868 nM,1460 nM,"CCN(C)c1c(Cl)cccc1NS(=O)(=O)c1ccc(S(=O)(=O)N(C)C)cc1 [Compound 78, N1-(3-chloro-2-(ethyl(methyl)amino)phenyl)-N4,N4-dimethylbenzene-1,4-disulfonamide]"
720 nM,< 80 nM,"CN(c1c(F)cccc1NS(=O)(=O)c1ccc(S(=O)(=O)N(C)C)cc1)C1CCCCC1 [Compound 12, N1-(2-(cyclohexyl(methyl)amino)-3-fluorophenyl)-N4,N4-dimethylbenzene-1,4-disulfonamide]"
420 nM,353 nM,"CC(C)CCN(C)c1c(Cl)cccc1NS(=O)(=O)c1ccc(S(=O)(=O)N(C)C)cc1 [Compound 67, N1-(3-chloro-2-(isopentyl(methyl)amino)phenyl)-N4,N4-dimethylbenzene-1,4-disulfonamide]"
510 nM,2270 nM,"CN(c1ccccc1NS(=O)(=O)c1ccc(S(=O)(=O)N(C)C)cc1)C1CCC(C)(C)CC1 [Compound 29, N1-(2-((4,4-dimethylcyclohexyl)(methyl)amino)phenyl)-N4,N4-dimethylbenzene-1,4-disulfonamide]"
472 nM,705 nM,"CCN(CC)c1c(Cl)cccc1NS(=O)(=O)c1ccc(S(=O)(=O)N(C)C)cc1 [Compound 77, N1-(3-chloro-2-(diethylamino)phenyl)-N4,N4-dimethylbenzene-1,4-disulfonamide]"
